Patent US7608604B2, “Antiparasitic agents” (Pfizer Limited, priority 2007, dated 2009)

System: Haemonchus contortus L3
Experiment: Haemonchus contortus L3 (HcL3) in vitro test
Type: cell-based
Settings: minimum effective dose
Method: The Haemonchus contortus L3 (HcL3) test is used to measure the biological activities of the compounds claimed. The assay involves in vitro testing against H. contortus conducted according to the following general procedure.
HcL3 larvae were collected from infected sheep and, after cleaning, stored in water at 12° C. for up to one month. Viable infective larvae were exsheathed using 10% hypochlorite in Glucose Tyrodes balanced salt solution containing antibiotics and resuspended in basal medium (20 g/l bacto-tryptone, 5 g/l yeast extract, 57 g/l glucose, 0.8 g/l di-Potassium hydrogen orthophosphate, 0.8 g/l potassium dihydrogen orthophosphate and […] Hepes with antibiotics). 95 μl worm suspension was added to each well of a 96 well plate.
Test compounds were dissolved in dimethylsulfoxide to give a working stock solution of 20 mg/ml. The stock concentration was diluted 1:10 in Basal media to give 2.0 mg/ml (10% DMSO). 5 μl of the stock compound solution was added to the worm suspension to give a final concentration of 100 μg/ml. Plates were sealed with pressure sensitive film and incubated at 37° C. Observations were made 2 hrs, 24 hrs, 48 hrs, 72 hrs and 4 days post-treatment using an inverted microscope. Activity was recorded if a significant proportion of the worms were dead or adversely affected by the compound when compared to the control well containing 1% DMSO. Compounds were initially tested at 100 μg/ml, wherefrom relevant dose responses (100, 30, 10, 3, 1, 0.3, 0.1 μg/ml) were conducted in duplicate experiments to generate n=2. Data was recorded as minimum effective dose.

[1] = table of Examples 13a-42, 13a/b, 27a/b, 29a/b, 33a/b tested as mixtures of regioisomers

Molecule: CC(C#N)(COc1cccc(Br)c1C#N)NC(=O)c1ccc(S(F)(F)(F)(F)F)cc1 (stereo not shown) [Example 40, N-[2-(3-Bromo-2-cyanophenoxy)-1-cyano-1-methylethyl]-4-(pentafluorothio)benzamide]
- H.c. (L3) MED [1]: 10 µg/mL

Molecule: CC(C#N)(COc1ccc(Br)cc1C#N)NC(=O)c1ccc(S(F)(F)(F)(F)F)cc1 (stereo not shown) [Example 41, N-[2-(4-Bromo-2-cyanophenoxy)-1-cyano-1-methylethyl]-4-(pentafluorothio)benzamide]
- H.c. (L3) MED [1]: 10 µg/mL

Molecule: CC(C#N)(COc1cccc(Cl)c1Cl)NC(=O)c1ccc(S(F)(F)(F)(F)F)cc1 (stereo not shown) [Example 42, N-[1-Cyano-2-(2,3-dichlorophenoxy)-1-methylethyl]-4-(pentafluorothio)benzamide]
- H.c. (L3) MED [1]: 30 µg/mL

Molecule: CC(C#N)(COc1cc(C#N)ccc1C(N)=O)NC(=O)c1ccc(S(F)(F)(F)(F)F)cc1 (stereo not shown) [Example 45, 4-Cyano-2-(2-cyano-2-{[4-(pentafluorothio)benzoyl]amino}propoxy)benzamide]
- H.c. (L3) MED (table of Examples 45-49): 30 µg/mL

Molecule: CC(C#N)(COc1cc(C#N)ccc1C#N)NC(=O)c1ccc(S(F)(F)(F)(F)F)cc1 (stereo not shown) [Example 46, N-[1-Cyano-2-(2,5-dicyanophenoxy)-1-methylethyl]-4-(pentafluorothio)benzamide]
- H.c. (L3) MED (table of Examples 45-49): 10 µg/mL

Molecule: CC(C#N)(COc1ccc(C#N)cc1C#N)NC(=O)c1ccc(S(F)(F)(F)(F)F)cc1 (stereo not shown) [Example 47, N-[1-Cyano-2-(2,4-dicyanophenoxy)-1-methylethyl]-4-(pentafluorothio)benzamide]
- H.c. (L3) MED (table of Examples 45-49): 10 µg/mL

Molecule: CC(C#N)(COc1cc(F)cc(C#N)c1)NC(=O)c1ccc(S(F)(F)(F)(F)F)cc1 (stereo not shown) [Example 48, N-[1-Cyano-2-(3-cyano-5-fluorophenoxy)-1-methylethyl]-4-(pentafluorothio)benzamide]
- H.c. (L3) MED (table of Examples 45-49): 3 µg/mL

Molecule: CC(C#N)(COc1ccc(C(N)=O)cc1Cl)NC(=O)c1ccc(S(F)(F)(F)(F)F)cc1 (stereo not shown) [Example 49]
- H.c. (L3) MED (table of Examples 45-49): 10 µg/mL

Molecule: CC(C#N)(COc1c(F)cc(C#N)cc1F)NC(=O)c1ccc(S(F)(F)(F)(F)F)cc1 (stereo not shown) [Example 51, N-[1-Cyano-2-(4-cyano-2,6-difluorophenoxy)-1-methylethyl]-4-(pentafluorothio)benzamide]
- H.c. (L3) MED (table of Examples 51-52): 3 µg/mL

Molecule: CC(C#N)(COc1cccc(Cl)c1C(F)(F)F)NC(=O)c1ccc(S(F)(F)(F)(F)F)cc1 (stereo not shown) [Example 52, N-{2-[3-Chloro-2-(trifluoromethyl)phenoxy]-1-cyano-1-methylethyl}-4-(pentafluorothio)benzamide]
- H.c. (L3) MED (table of Examples 51-52): 10 µg/mL

Molecule: N-[2-(2-Chloro-4-fluorophenoxy)-1-cyano-1-methylethyl]-4-(pentafluorothio)benzamide [Example 13a]
- H.c. (L3) MED [1]: 1 µg/mL

Molecule: N-[2-(3-Chloro-4-fluorophenoxy)-1-cyano-1-methylethyl]-4-(pentafluorothio)benzamide [Example 13b]
- H.c. (L3) MED [1]: 1 µg/mL

Molecule: N-[2-(4-Chlorophenoxy)-1-cyano-1-methylethyl]-(pentafluorothio)benzamide [Example 15]
- H.c. (L3) MED [1]: 30 µg/mL
